Data on one compound can be found in patent US20260232681A1, “CRYSTALLINE FORMS OF N-[4-[4-(4-MORPHOLINYL)-7H-PYRROLO[2,3-D]PYRIMIDIN-6- YL]PHENYL]-4-[[3(R)-[(L-OXO-2-PROPEN-L-YL)AMINO]-L-PIPERIDINYL]METHYL]-2-PYRIDINECARBOXAMIDE AS A COVALENT INHIBITOR OF MENIN-MLL INTERACTION” (BIOMEA FUSION, INC., priority 2023, published 2026).

The test system of test [1] is streptozotocin (STZ) induced type II diabetes in Wistar Han rats. The test can be described thus: Glycemic control in streptozotocin-induced diabetic rats (Examples 103, 105). The test is classed as in vivo, rat. The procedure: The present example provides the ability of Compound 10 to restore glycemic control to streptozotocin (STZ) induced type II diabetes in Wistar Han rats. Fahmy et al., 2017, World J. Pharm. Med. Res. 3(3):37-39.
Control and test compounds were stored at 4° C. and prepared weekly as needed. The vehicle for positive control pioglitazone was 0.25% carboxymethylcellulose and 1% Tween® 80 in reverse osmosis deionized water. The vehicle for Compound 10 was 10% DMSO, 10% Solutol HS 15, and 80% (10% hydroxypropyl-β-cyclodextrin in 50 mM citrate buffer at pH 3.0). The vehicle for streptozotocin pretreatment was 0.1 M sodium citrate pH 4.5.
On Day −3, twenty-four Wistar Han rats (plus eight spare Wistar Han rats) were measured for body weight and non-fasting glucose. Starting on Day −42, D12451 Research Diet was provided ad libitum throughout the study, except during designated procedures, as was water. In order to minimize the effects of stress on blood glucose and body, all animals including the spares received daily sham doses with phosphate buffered saline pH 7.2 (dose volume 5 mL/kg) via gavage beginning on Study Day −5 to Day −1. 20% Glucose in drinking water (200 g/L) was provided ad libitum for 24 hr after streptozotocin injection on Day −14 and Day −7.
On Days −14 and −7, streptozotocin was administered at 30 mg/kg/day QD intraperitoneally. Starting on Day 1, control and test compound were administered on the following schedule.
On Days −7 to −1 and on Days 1, 8, and 14 non-fasting blood glucose was measured. On Day 15, an oral glucose tolerance test was administered. The animals were weighed and the animals were placed in clean cages without food. Access to water was provided throughout the procedure. The animals were fasted for five hours and a blood glucose measurement was determined. The animals were dosed via oral gavage with 2 g/kg glucose (10 mL/kg). Blood glucose was determined via venipuncture. The second drop of blood from the animal was placed on a hand-held glucometer (Abbott Alpha Trak) at the following times relative to the glucose dose: zero (just prior to glucose dose), 15, 30, 60, 90, and 120 min. Following the final blood glucose measurement, food was returned to the cages. On Day 17, 4-hour fasting glucose was measured. Serum samples were used to measure insulin by ELISA. Analysis was performed in one to three days of each collection. On Day 17, terminal blood collection was obtained at about 8 mL per animal and measured for blood glucose.
ZDF rats were treated daily with Compound 10, vehicle, or pioglitazone for sixteen days and monitored for an additional two weeks post-treatment until Day 29. STZ rat models were induced through pre-treatment of animals on a high-fat diet with low doses of streptozotocin at Day −14 and Day −7 prior to starting treatment at Day Zero until Day 16. ZDF and STZ rats were monitored for fasting blood glucose levels, oral glucose tolerance test (OGTT), insulin and C-peptide levels, HOMA-IR (Homeostatic Model Assessment of Insulin Resistance), blood lipemic levels, and body weight according to the schematic for each model below. ZDF rats were analyzed for indicated readouts for fifteen days post-treatment for OGTT at Day 29, and serum insulin and C-peptide at Day 31.
STZ Rat Model—three treatment groups 1. Vehicle; 2. Compound 10 at 175 mg/kg; and 3. Pioglitazone at 30 mg/kg; n=10 per group. […] Rats were monitored for the following parameters through dosing—body weight, blood glucose levels, and OGTT.

The test system of test [2] is KRAS mutated cell lines (CRC, NSCLC, pancreatic). The test can be described thus: KRAS mutant cell line proliferation (CellTiter-Glo, four days). The test is classed as cell-based, human. The note with it: for GI50: Homo sapiens. The procedure: The inhibitory effect on cell proliferation was investigated in the human pancreas KRAS mutated cell lines MIA PaCa-2, HuP-T4, HPAF-II, human lung KRAS mutated cell line NCI-H358, and human colon KRAS mutated cell lines SW837, SW60, and NCI-H747. […] Cells were grown by adhering to culture flasks, and maintained at 70%-80% confluency.
ATP is present in all metabolically active cells and is considered as a marker for viable cells. […] The cell proliferation assay was performed using a 96-well plate format.
Eight concentrations of test compound were assessed in duplicate for each experimental run. 100% cell proliferation is represented by the untreated cells (0.2% DMSO).
200 μL of cell suspension were added to each well of a 96-well plate.
Cell viability was measured using CellTiterGlo. […] Cell viability was measured using CellTiter Glo.

The next test has as its system KRAS and MEN1 expression. The test can be described thus: RNA-seq gene expression in MiaPaCa-2 cells. The note with it: MiaPaCa-2 cells after twenty-four hours. The arrangement: dose or concentration left out as unconfirmed. In kind it is cell-based, human. The procedure: (§1) MOLM-13 and MiaPaCa-2 cells were incubated with Compound A for twenty-four hours and were analyzed by RNA-seq on an Illumina NextSeq 550 platform. […] Cell viability was measured using CellTiterGlo. Human ex vivo PDX tissue models harboring KRAS mutations were cultured with Compound A and clinical reversible menin inhibitors for six days. Cell viability was measured using CellTiter Glo.

Test [3] has as its system CLL samples isolated from patients. The test can be described thus: Ex vivo CLL patient samples, antileukemic activity. The test is classed as cell-based, human. The note with it: CLL ex vivo patient samples, 1 μM exposure.
Test [4] deals with Human ex vivo PDX tissue models harboring KRAS mutations. In words: Ex vivo KRAS-mutated PDX tissue viability (CellTiter Glo, six days). In kind it is cell-based. The conditions noted are these: six-day treatment, all samples. The procedure: as §1
(In general: Cellular ATP, detected with luciferase, serves as a proxy for viable cell number.)

In a further test the test system is MM cell lines. In words: MM cell line proliferation (Cell Titer Glo, four days). In kind it is cell-based. The method, then:
Compound A was tested against a THL cell line (VAL), and a DEL cell line (U2932). An expanded panel of DHL cell lines were tested for sensitivity to Compound A. Ex vivo patient samples of THL and MYC-amplified DLBCL were tested with Compound A. Sensitivity of THL and MYC-driven DLBCL in both in vitro and ex vivo models were compared with clinical reversible menin inhibitors. Compound A was tested against a panel of MM cell lines and ex vivo MM patient samples of p53del, 13qdel, and relapsed/refractory cases.
DLBCL cell line TOLEDO was cultured in the presence of Compound A or clinical reversible menin inhibitors for six and fourteen hours. Menin protein expression was reduced up to 60% at 1 μM by Compound A after fourteen hours compared to clinical reversible inhibitors at <20% at similar concentrations. Menin protein expression was measured by the Wes system and analyzed using the Compass software (automated western blotting, Protein Simple). Signal was normalized to GAPDH and referenced to DMSO control (FIG. 171E). DLBCL and MM cell lines were cultured with Compound A, bortezomib (PS-341), or DMSO for four days and cell proliferation was measured by Cell Titer Glo. Ex vivo studies of DLBCL and MM models were conducted by measurement of cell proliferation (Cell Titer Glo) after six days of treatment with Compound A, PS-341, or DMSO control.

Where two headings read alike, the source gives them in different places.

`C=CC(=O)N[C@@H]1CCCN(Cc2ccnc(C(=O)Nc3ccc(-c4cc5c(N6CCOCC6)ncnc5[nH]4)cc3)c2)C1` [Compound A, N-[4-[4-(4-morpholinyl)-7H-pyrrolo[2,3-d]pyrimidin-6-yl]phenyl]-4-[[3(R)-[(1-oxo-2-propen-1-yl)amino]-1-piperidinyl]methyl]-2-pyridinecarboxamide]: in test [1] (STZ rats), the blood lipemic levels entry is listed as “Significant reductions”. In test [1] (STZ rats), the body weight entry was “Significant reductions”. For the same compound, in test [1] (STZ rats, after fifteen days of treatment), the “oral glucose tolerance test, glucose control” value was “significant glucose control”. Moreover, the “insulin in the non-fasting state” value in test [1] (STZ-induced diabetes model) is on record as “significant reduction”. The non-fasting glucose result in test [1] (STZ-induced diabetes model, compared to vehicle and control) is “sharp reduction”. For the same compound, the concentration for 50% growth inhibition (GI50) in test [2] (column 1: KRAS G12C, NSCLC (8), read-out: KRAS G12C GI50) lay in the range of 360 to 570 nM; in test [2] (column 5: RAS WT, Pancreatic (4), read-out: RAS WT GI50), 430 to 830 nM; in test [2] (column 8: KRAS G12D, Pancreatic (1) (second set of heads), read-out: KRAS G12D GI50), 370 to 570 nM. In addition, the “growth inhibition of KRAS-mutated cell lines compared to a known KRAS therapeutic” value in test [2] (all cancer cell types tested) is “significantly greater growth inhibition”. The inhibition of growth in test [2] (most of fourteen CRC, NSCLC and pancreatic KRAS mutated cell lines, four-day treatment) is recorded as greater than 90%. Besides, the “KRAS and MEN1 expression levels” value in the test on KRAS and MEN1 expression was “marked reduction”. Also, the figures for the cell lethality (in test [3]; in the test on MM cell lines) were greater than 98% and greater than 99%, respectively. Further, in test [4], the “growth of ex vivo preclinical models” value is “Complete abrogation of growth”.

Broadly, the GI50 is the concentration giving 50% growth inhibition. One may read the inhibition of growth as the share of the control response that was lost under treatment.
